Calls of active or inactive are those of the source. The rule behind the calls is not given here.
Experiments:
Mus musculus [1] = assay: Analgesic activity in sc dosed mouse by hot plate method; type: functional
Rhesus monkey [2] = assay: Toxicity in nonwithdrawn monkey assessed as precipitation of abstinence at 5 mg/kg; type: organism-based, Macaca mulatta; set-up: dose 5 mg/kg; settings: in vivo
Rhesus monkey [3] = assay: Suppression of narcotic abstinence syndrome in monkey at 5 mg/kg administered as single dose; type: functional, organism-based; set-up: dose 5 mg/kg; settings: Macaca mulatta
Mus musculus [4] = assay: Analgesic activity in sc dosed mouse by Nilsen method; type: functional
Rhesus monkey [5] = assay: Toxicity in monkey assessed as morphine-like dependence liability; type: organism-based, Macaca mulatta; settings: in vivo
Rhesus monkey [6] = assay: Toxicity in monkey assessed as precipitation of abstinence at 3 to 24 mg/kg; type: organism-based, Macaca mulatta; set-up: dose 3-24 mg/kg; settings: in vivo
Rhesus monkey [7] = assay: Suppression of narcotic abstinence syndrome in monkey at 3 to 24 mg/kg; type: functional, organism-based; settings: Macaca mulatta
Mus musculus [8] = assay: Analgesic activity in mouse at 50 mg/kg, sc by hot plate method; type: functional, organism-based; set-up: dose 50 mg/kg
Mus musculus [9] = assay: Analgesic activity in mouse at 20 mg/kg, sc by hot plate method; type: functional, organism-based; set-up: dose 20 mg/kg
Mus musculus [10] = assay: Analgesic activity in mouse at 100 mg/kg, sc by hot plate method; type: functional, organism-based; set-up: dose 100 mg/kg

Row | Compound | ED50 (Mus musculus [1]) [mg/kg] | ED50 (Mus musculus [4]) [mg/kg] | other results
1 | Cc1[nH]c(C)c(C(=O)OC2CCN(C)CC2)c1C.O=C(O)C(F)(F)F | 4.9 | 7.1 | Activity (Rhesus monkey [2]): Non-toxic; Activity (Rhesus monkey [3]): inactive; Activity (Rhesus monkey [5]): Non-toxic
2 | Cc1[nH]c(C)c(C(=O)OC2CCN(Cc3ccccc3)CC2)c1C.Cl.O | 6.3 |  | 
3 | COc1ccc2c3c1O[C@H]1[C@@H](O)C=C[C@H]4[C@@H](C2)N(C)CC[C@@]341 [CODEINE] | 7.5 | 4.5 | 
4 | Cc1[nH]c(C)c(C(=O)O[C@@H]2[C@H]3O[C@H]4C[C@@H]2N(C)[C@H]3C4)c1C | 6 | 28.9 | Activity (Rhesus monkey [6]): Non-toxic; Activity (Rhesus monkey [7]): inactive
5 | Cc1[nH]c(C)c(C(=O)O[C@H]2C[C@H]3CC[C@@H](C2)N3C)c1C.O.O=C(O)C(F)(F)F | 21.3 |  | 
6 | Cc1[nH]c(C)c(C(=O)OC2CCN(C)C2)c1C.Cl.O (stereo unspecified) | 64.3 |  | 
7 | Cc1[nH]c(C)c(C(=O)O[C@@H]2C[C@H]3CC[C@@H](C2)N3C)c1C |  |  | Activity (Mus musculus [8]): Active
8 | Cc1[nH]c(C)c(C(=O)OC2CCN(CCc3ccccc3)CC2)c1C |  |  | Activity (Mus musculus [9]): Active
9 | Cc1c(C(=O)OC2CCN(C)CC2)c(C)n(C)c1C |  |  | Activity (Mus musculus [9]): Active
10 | Cc1[nH]c(C)c(C(=O)OC2CCCN(C)C2)c1C (stereo unspecified) |  |  | Activity (Mus musculus [10]): inactive
11 | Cc1[nH]c(C)c(C(=O)OC2CC(C)(C)NC(C)(C)C2)c1C |  |  | Activity (Mus musculus [10]): inactive
12 | CN1CC[C@]23c4c5ccc(O)c4O[C@H]2[C@@H](O)C=C[C@H]3[C@H]1C5 [MORPHINE] | 1.2 | 0.8 | 

Source: ChEMBL document CHEMBL3244420, “Pyrrole esters of tropanols and related structures as analgesics” (J Med Chem, 1977)
